In ChEMBL document CHEMBL1126552 (J Med Chem, 1993):

How the values were obtained:
Adenosine A2 receptor = Adenosine A2 receptor (Rattus norvegicus, UniProt P29276+P30543); assay: Binding affinity towards adenosine A2 receptor was determined using radioligand [3H]NECA in rat brain striatum at 25 degree C; assay type: tissue-based
[1] = target: Adenosine receptors; A1 & A2 (Rattus norvegicus) (UniProt P29276+P25099+P30543); assay: Selectivity as ratio of Ki against A2 and A1 receptors; assay type: protein assay
Adenosine receptor A1 = target: T1, Adenosine receptor A1 (Rattus norvegicus, UniProt P25099); assay: Binding affinity towards adenosine A1 receptor was determined using radioligand [3H]CHA in whole rat brain membranes at 25 degree C; assay type: cell membranes
T1 sequence (P25099 whole entry): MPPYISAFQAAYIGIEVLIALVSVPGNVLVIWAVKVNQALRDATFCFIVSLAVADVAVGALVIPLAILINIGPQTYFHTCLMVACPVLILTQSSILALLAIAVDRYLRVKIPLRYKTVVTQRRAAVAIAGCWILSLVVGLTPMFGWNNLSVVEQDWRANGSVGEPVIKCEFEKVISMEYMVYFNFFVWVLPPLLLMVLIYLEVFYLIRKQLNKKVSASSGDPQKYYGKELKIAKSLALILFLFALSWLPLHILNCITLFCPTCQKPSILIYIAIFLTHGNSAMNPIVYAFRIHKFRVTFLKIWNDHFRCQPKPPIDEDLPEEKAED

SMILES	Ki (Adenosine A2 receptor)	Ratio [1]	Ki (Adenosine receptor A1)
CCCn1c(=O)c2nc([C@@H](C)c3ccccc3)[nH]c2n(CCC)c1=O	12.9 µM	–	–
CCCn1c(=O)c2nc([C@H](C)c3ccccc3)[nH]c2n(CCC)c1=O	4.22 µM	–	–
CCCn1c(=O)c2nc(C(CO)Cc3ccccc3)[nH]c2n(CCC)c1=O (centres undefined)	12.8 µM	–	–
CCCn1c(=O)c2nc([C@@H](CC)c3ccccc3)[nH]c2n(CCC)c1=O	7.5 µM	55	0.136 µM
CCCn1c(=O)c2nc(C(CC)c3ccccc3)[nH]c2n(CCC)c1=O (centres undefined)	3.21 µM	95	0.0335 µM
CCCn1c(=O)c2nc([C@H](CC)c3ccccc3)[nH]c2n(CCC)c1=O	3.51 µM	153	–
CCCC(Cc1ccccc1)c1nc2c(=O)n(CCC)c(=O)n(CCC)c2[nH]1 (centres undefined)	0.61 µM	–	–
CCCn1c(=O)c2nc(C(CC)Cc3ccccc3)[nH]c2n(CCC)c1=O (centres undefined)	1.23 µM	–	–
CCCn1c(=O)c2nc(CC(C)c3ccccc3)[nH]c2n(CCC)c1=O (centres undefined)	1.74 µM	18	–
CCCn1c(=O)c2nc(C3Cc4ccccc4C3)[nH]c2n(CCC)c1=O	8.35 µM	–	–
CCCn1c(=O)c2nc([C@H]3CCC[C@@H]3c3ccccc3)[nH]c2n(CCC)c1=O	2.72 µM	–	–
CCCn1c(=O)c2nc(C3CCc4ccccc4C3)[nH]c2n(CCC)c1=O (centres undefined)	10.3 µM	–	–
CCCn1c(=O)c2nc(C(C)c3ccccc3)[nH]c2n(CCC)c1=O (centres undefined)	4.9 µM	–	–
